Experimental data published in PubChem BioAssay AID248 (DTP/NCI, 2004).
Inconclusive results and toxic doses are left out. Cut-off read from the data, not from the text of the source: active = T/C of 150% or more; inactive = T/C below 125%.

System: L1210 leukemia ip in BDF1 mice, survival T/C
Assay: NCI In Vivo Anticancer Drug Screen. Data for tumor model L1210 Leukemia (intraperitoneal) in B6D2F1 (BDF1) mice
Details: endpoint: mean survival time, higher = longer survival
How it was run: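 Mice bearing the transplanted tumor received compound or vehicle. Survival of the treated group was divided by that of the vehicle-treated control group to give the ratio.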

[1] = dose: 100.0 mg/kg/injection, schedule: Q01DX009 (ip), vehicle: Klucel (hydroxypropylcellulose) (HPC)
[2] = dose: 100.0 mg/kg/injection, schedule: Q04DX003 (ip), vehicle: Klucel (hydroxypropylcellulose) (HPC)
[3] = dose: 200.0 mg/kg/injection, schedule: Q01DX009 (ip), vehicle: Klucel (hydroxypropylcellulose) (HPC)
[4] = dose: 200.0 mg/kg/injection, schedule: Q04DX003 (ip), vehicle: Klucel (hydroxypropylcellulose) (HPC)
[5] = dose: 400.0 mg/kg/injection, schedule: Q01DX009 (ip), vehicle: Klucel (hydroxypropylcellulose) (HPC)
[6] = dose: 400.0 mg/kg/injection, schedule: Q04DX003 (ip), vehicle: Klucel (hydroxypropylcellulose) (HPC)
[7] = dose: 100.0 mg/kg/injection, schedule: Q04DX003 (ip), vehicle: saline with Tween-80
[8] = dose: 200.0 mg/kg/injection, schedule: Q04DX003 (ip), vehicle: saline with Tween-80
[9] = dose: 400.0 mg/kg/injection, schedule: Q04DX003 (ip), vehicle: saline with Tween-80
[10] = dose: 50.0 mg/kg/injection, schedule: Q01DX009 (ip), vehicle: saline
[11] = dose: 100.0 mg/kg/injection, schedule: Q01DX009 (ip), vehicle: saline
[12] = dose: 200.0 mg/kg/injection, schedule: Q01DX009 (ip), vehicle: saline
[13] = dose: 50.0 mg/kg/injection, schedule: Q01DX001 (ip), vehicle: saline
[14] = dose: 100.0 mg/kg/injection, schedule: Q01DX001 (ip), vehicle: saline
[15] = dose: 200.0 mg/kg/injection, schedule: Q01DX001 (ip), vehicle: saline
[16] = dose: 400.0 mg/kg/injection, schedule: Q01DX001 (ip), vehicle: saline
[17] = dose: 100.0 mg/kg/injection, schedule: Q01DX009 (ip), vehicle: saline with Tween-80
[18] = dose: 200.0 mg/kg/injection, schedule: Q01DX009 (ip), vehicle: saline with Tween-80
[19] = dose: 50.0 mg/kg/injection, schedule: Q01DX009 (ip), vehicle: saline with Tween-80

Measured: T/C

COc1ccc(Cl)cc1NC(=O)COc1ccc(Cl)cc1
inactive: [1] 96 % of control | [2] 102 % of control | [3] 107 % of control | [4] 122 % of control | [5] 96 % of control | [6] 90 % of control

O=c1cc(Nc2cccc(Cl)c2)[nH]c(=O)[nH]1
inactive: dose: 35.0 mg/kg/injection, schedule: Q01DX001 (ip), vehicle: Klucel (hydroxypropylcellulose) (HPC) 92 % of control | dose: 70.0 mg/kg/injection, schedule: Q01DX001 (ip), vehicle: Klucel (hydroxypropylcellulose) (HPC) 92 % of control | dose: 140.0 mg/kg/injection, schedule: Q01DX001 (ip), vehicle: Klucel (hydroxypropylcellulose) (HPC) 98 % of control

CNC(=Nc1ccccc1)c1ccc(NC(=O)c2ccc(C(=O)Nc3ccc(C(=Nc4ccccc4)NC)cc3)cc2)cc1
inactive: dose: 15.0 mg/kg/injection, schedule: Q01DX Z (ip), vehicle: saline 100 % of control | dose: 30.0 mg/kg/injection, schedule: Q01DX Z (ip), vehicle: saline 105 % of control | dose: 60.0 mg/kg/injection, schedule: Q01DX Z (ip), vehicle: saline 102 % of control

O=CNc1cc([N+](=O)[O-])cc([N+](=O)[O-])c1O
inactive: [2] 104 % of control | [4] 100 % of control | [6] 93 % of control

Cc1ccc(S(=O)(=O)NC(=O)NCCS)cc1
inactive: dose: 100.0 mg/kg/injection, schedule: Q04DX003 (ip), vehicle: saline 100 % of control | dose: 200.0 mg/kg/injection, schedule: Q04DX003 (ip), vehicle: saline 102 % of control | dose: 400.0 mg/kg/injection, schedule: Q04DX003 (ip), vehicle: saline 96 % of control

O=C(CCCCCCCCC(=O)OO)OO (tested in a mixture with another compound)
inactive: [7] 98 % of control | [8] 92 % of control | [9] 90 % of control

CCN(CC)C(=O)CS(=O)(=O)c1ccc(C)cc1
inactive: [7] 96 % of control | [8] 110 % of control | [9] 98 % of control

C/C=C/C(=O)OCCN(CC)CC
inactive: [10] 103 % of control | [11] 103 % of control | [12] 100 % of control

C1CSCCS1
inactive: [1] 101 % of control | [3] 117 % of control | [5] 100 % of control

Fc1ccc(NC(=S)Nc2cc(Cl)cc(Cl)c2)cc1
inactive: dose: 7.5 mg/kg/injection, schedule: Q01DX Z (ip), vehicle: carboxymethylcellulose (CMC) 96 % of control | dose: 15.0 mg/kg/injection, schedule: Q01DX Z (ip), vehicle: carboxymethylcellulose (CMC) 93 % of control | dose: 30.0 mg/kg/injection, schedule: Q01DX Z (ip), vehicle: carboxymethylcellulose (CMC) 100 % of control | dose: 50.0 mg/kg/injection, schedule: Q01DX001 (ip), vehicle: carboxymethylcellulose (CMC) 98 % of control | dose: 60.0 mg/kg/injection, schedule: Q01DX Z (ip), vehicle: carboxymethylcellulose (CMC) 87 % of control | dose: 75.0 mg/kg/injection, schedule: Q01DX Z (ip), vehicle: carboxymethylcellulose (CMC) 87 % of control | dose: 100.0 mg/kg/injection, schedule: Q01DX001 (ip), vehicle: carboxymethylcellulose (CMC) 93 % of control | dose: 200.0 mg/kg/injection, schedule: Q01DX001 (ip), vehicle: carboxymethylcellulose (CMC) 95 % of control

CC(=O)Oc1ccc(N2C(=O)C=CC2=O)cc1
inactive: dose: 3.12 mg/kg/injection, schedule: Q01DX009 (ip), vehicle: Klucel (hydroxypropylcellulose) (HPC) 97 % of control | dose: 6.25 mg/kg/injection, schedule: Q01DX009 (ip), vehicle: Klucel (hydroxypropylcellulose) (HPC) 96 % of control | dose: 12.5 mg/kg/injection, schedule: Q01DX009 (ip), vehicle: Klucel (hydroxypropylcellulose) (HPC) 100 % of control | dose: 25.0 mg/kg/injection, schedule: Q04DX003 (ip), vehicle: Klucel (hydroxypropylcellulose) (HPC) 118 % of control

O=C(Cc1ccc2c(c1)OCO2)c1cn(C(=O)Cc2ccc3c(c2)OCO3)c2ccccc12
inactive: [13] 108 % of control | [14] 102 % of control | [15] 93 % of control | [16] 96 % of control

CN(C)/C=C1\C(=O)Nc2c1c(=O)n(C)c(=O)n2C
inactive: [10] 93 % of control | [11] 90 % of control

NC(CCSSCCC(N)C(=O)O)C(=O)O (centres undefined)
inactive: dose: 12.5 mg/kg/injection, schedule: Q04DX002 (ip), vehicle: Klucel (hydroxypropylcellulose) (HPC) 113 % of control | dose: 25.0 mg/kg/injection, schedule: Q04DX002 (ip), vehicle: Klucel (hydroxypropylcellulose) (HPC) 97 % of control | dose: 50.0 mg/kg/injection, schedule: Q04DX002 (ip), vehicle: Klucel (hydroxypropylcellulose) (HPC) 103 % of control | [2] 93 % of control | [4] 101 % of control | [6] 93 % of control

CN(CCN1CCCCC1)C(=O)C(O)(c1ccccc1)C1CCCCC1 (centres undefined)
inactive: dose: 75.0 mg/kg/injection, schedule: Q01DX001 (ip), vehicle: saline 96 % of control | dose: 150.0 mg/kg/injection, schedule: Q01DX001 (ip), vehicle: saline 97 % of control

O=[N+]([O-])c1ccc2c(c1)COCO2
inactive: [7] 95 % of control | [8] 95 % of control | [9] 97 % of control

CN(C)[C@@H]1C(=O)C(C(=O)NCNC2(C(=O)O)CCCC2)=C(O)[C@@]2(O)C(=O)C3=C(O)c4c(O)cccc4[C@@](C)(O)[C@H]3C[C@@H]12
inactive: dose: 62.0 mg/kg/injection, schedule: Q01DX Z (ip), vehicle: saline 95 % of control | dose: 125.0 mg/kg/injection, schedule: Q01DX Z (ip), vehicle: saline 98 % of control | dose: 250.0 mg/kg/injection, schedule: Q01DX Z (ip), vehicle: saline 114 % of control

Cc1ccccc1N1OS(=O)(=O)CC1(C#N)c1ccccc1 (centres undefined)
inactive: [17] 98 % of control | [18] 102 % of control | dose: 400.0 mg/kg/injection, schedule: Q01DX009 (ip), vehicle: saline with Tween-80 96 % of control

CCSC(C(Nc1ccc([N+](=O)[O-])cc1[N+](=O)[O-])C(O)C(O)C(O)CO)n1cc(C)c(=O)[nH]c1=O (centres undefined)
inactive: [13] 97 % of control | [14] 100 % of control | [15] 100 % of control | [16] 100 % of control

C#CC1(O)CCCCCC1
inactive: dose: 100.0 mg/kg/injection, schedule: Q04DX002 (ip), vehicle: saline with Tween-80 95 % of control | dose: 200.0 mg/kg/injection, schedule: Q04DX002 (ip), vehicle: saline with Tween-80 100 % of control | dose: 400.0 mg/kg/injection, schedule: Q04DX002 (ip), vehicle: saline with Tween-80 92 % of control

CCCCCC/C=C/[N+]([O-])=NC(COC)C(C)O (centres undefined)
inactive: dose: 5.3 mg/kg/injection, schedule: Q01DX Z (ip), vehicle: carboxymethylcellulose (CMC) 103 % of control | dose: 8.0 mg/kg/injection, schedule: Q01DX Z (ip), vehicle: carboxymethylcellulose (CMC) 106 % of control | dose: 12.0 mg/kg/injection, schedule: Q01DX Z (ip), vehicle: carboxymethylcellulose (CMC) 101 % of control | dose: 18.0 mg/kg/injection, schedule: Q01DX Z (ip), vehicle: carboxymethylcellulose (CMC) 95 % of control

NCCS(=O)CCN
inactive: [11] 100 % of control | [12] 107 % of control | dose: 400.0 mg/kg/injection, schedule: Q01DX009 (ip), vehicle: saline 94 % of control

O=C(O)C1=CCCc2ccc(Br)cc21
inactive: [19] 93 % of control | [17] 95 % of control | [18] 98 % of control

Cc1cc(C)c(C)c(OC(=O)Nc2ccc(Cl)cc2C(F)(F)F)c1
inactive: [19] 92 % of control | [17] 103 % of control | [18] 106 % of control

NC(=S)NN=C1CCCCCCCCC1
inactive: [14] 102 % of control

C[N+](C)(C)CCCBr
inactive: dose: 10.0 mg/kg/injection, schedule: Q01DX001 (ip), vehicle: saline 112 % of control | dose: 20.0 mg/kg/injection, schedule: Q01DX001 (ip), vehicle: saline 89 % of control

CC(C)Oc1c(N(C)CCO)c2cc(Cl)ccc2oc1=O
inactive: [7] 95 % of control | [8] 101 % of control

O=[N+]([O-])c1ccc(C(Br)C(Br)c2ccccc2Cl)cc1 (centres undefined)
inactive: [1] 96 % of control | [2] 110 % of control | [3] 98 % of control | [4] 100 % of control | [5] 93 % of control | [6] 94 % of control

CCOC(=O)C(Cc1ccccc1)(NC=O)C(=O)OCC
inactive: [1] 94 % of control | [3] 98 % of control | [5] 96 % of control
